# Data published in patent publication US6787543B2, “Benzhydryl derivatives” (Fujisawa Pharmaceutical Co., Ltd., priority 2002, dated 2004).
# Columns and labels:
# emesis in the dog = assay: Emesis in the Dog (apomorphine-induced retching and vomiting); type: in vivo; conditions: adult female dogs; test compound i.v. at 1.0 mg/kg; 5 min later subcutaneous apomorphine (0.1 mg/0.5 ml/kg); observed for 60 min
# Procedure: Individually housed adult female dogs (8 to 15 kg) were given an i.v. injection of a solution containing a test compound. 5 Min later the emetic responses (retching and vomiting) were induced by administration of subcutaneous apomorphine (0.1 mg/0.5 ml/kg) and observed for the next 60 min. The timing and number of retches and vomits observed were recorded for each animal. An individual animal was tested with at least 10 days between experiments.
SMILES,melting point,inhibition rate of emesis (emesis in the dog)
CCCC(=O)N1CCN2[C@H](CN(Cc3cc(-n4nnnc4C(F)(F)F)ccc3OC)C[C@H]2C(c2ccccc2)c2ccccc2)C1.Cl.Cl,162 to 166 °C,–
COc1ccc(-c2ccsc2)cc1CN1C[C@@H]2CN(C(C)=O)CCN2[C@H](C(c2ccccc2)c2ccccc2)C1.Cl.Cl,177 to 181 °C,–
COc1ccc(C(F)(F)F)cc1CN1C[C@@H]2CN(C(C)=O)CCN2[C@H](C(c2ccccc2)c2ccccc2)C1.Cl.Cl,147 to 150 °C,–
COc1ccc(-c2ccncc2)cc1CN1C[C@@H]2CN(C(C)=O)CCN2[C@H](C(c2ccccc2)c2ccccc2)C1.Cl.Cl.Cl,210 to 215 °C,–
CCOc1ccc(-n2nnnc2C(F)(F)F)cc1CN1C[C@@H]2CN(C(C)=O)CCN2[C@H](C(c2ccccc2)c2ccccc2)C1.Cl.Cl,162 to 165 °C,–
COc1ccc(-c2ccoc2)cc1CN1C[C@@H]2CN(C(C)=O)CCN2[C@H](C(c2ccccc2)c2ccccc2)C1.Cl.Cl,173 to 177 °C,–
COc1ccncc1CN1C[C@@H]2CN(C(C)=O)CCN2[C@H](C(c2ccccc2)c2ccccc2)C1.Cl.Cl.Cl,205 to 210 °C,–
COc1cc(OC)c(CN2C[C@@H]3CN(C(C)=O)CCN3[C@H](C(c3ccccc3)c3ccccc3)C2)c(OC)c1.Cl.Cl,170 to 173 °C,–
"COC(=O)N1CCN2[C@H](CN(Cc3cc(-n4nnnc4C(F)(F)F)ccc3OC)C[C@H]2C(c2ccccc2)c2ccccc2)C1.Cl.Cl [Example 28, (6R,9aR)-6-benzhydryl-8-[2-methoxy-5-[5-(trifluoromethyl)-1H-tetrazol-1-yl]benzyl]octahydropyrazino[1,2-a]pyrazine-2-carboxylic acid methyl ester dihydrochloride]",–,90%

# Continued, in another order:
melting point,SMILES,inhibition rate of emesis (emesis in the dog)
171 to 175 °C,CCC(=O)N1CCN2[C@H](CN(Cc3cc(-n4nnnc4C(F)(F)F)ccc3OC)C[C@H]2C(c2ccccc2)c2ccccc2)C1.Cl.Cl,–
172 to 175 °C,COc1ccc(-n2nnnc2C(F)(F)F)cc1CN1C[C@@H]2CN(C(=O)C(C)C)CCN2[C@H](C(c2ccccc2)c2ccccc2)C1.Cl.Cl,–
153 to 156 °C,CCOC(=O)N1CCN2[C@H](CN(Cc3cc(-n4nnnc4C(F)(F)F)ccc3OC)C[C@H]2C(c2ccccc2)c2ccccc2)C1.Cl.Cl,–
147 to 150 °C,COc1ccc(-n2nnnc2C(F)(F)F)cc1CN1C[C@@H]2CN(C(=O)OC(C)C)CCN2[C@H](C(c2ccccc2)c2ccccc2)C1.Cl.Cl,–
138 to 150 °C (dec.),COc1ccc(-n2nnnc2C(F)(F)F)cc1CN1C[C@@H]2CN(C(=O)CC(C)C)CCN2[C@H](C(c2ccccc2)c2ccccc2)C1.Cl.Cl,–
143 to 146 °C,CCS(=O)(=O)N1CCN2[C@H](CN(Cc3cc(-n4nnnc4C(F)(F)F)ccc3OC)C[C@H]2C(c2ccccc2)c2ccccc2)C1.Cl.Cl,–
146 to 165 °C,CCCS(=O)(=O)N1CCN2[C@H](CN(Cc3cc(-n4nnnc4C(F)(F)F)ccc3OC)C[C@H]2C(c2ccccc2)c2ccccc2)C1.Cl.Cl,–
150 to 155 °C,COc1ccc(-n2nnnc2C(F)(F)F)cc1CN1C[C@@H]2CN(S(=O)(=O)C(C)C)CCN2[C@H](C(c2ccccc2)c2ccccc2)C1.Cl.Cl,–
167 to 171 °C,CC(=O)N1CCN2[C@H](CN(Cc3cc(-n4nnnc4C(F)(F)F)ccc3OC(C)C)C[C@H]2C(c2ccccc2)c2ccccc2)C1.Cl.Cl,–
